From ChEMBL document CHEMBL3046635, “Synthesis and Herbicidal Activity of New Pyrazole-4-carboxamide Derivatives” (J Pestic Sci, 2004)
Active and inactive are the calls of the source.

What follows are molecules tested on Eleocharis acicularis (assay: Pre-emergence herbicidal activity against Eleocharis acicularis at 100 g a.i/ha measured after 14 days). Details: not given.
Type: functional, organism-based

SMILES | Activity
CCONC(=O)c1cn(C)nc1OCc1cccc(C(F)(F)F)c1 | Active

The molecules below were run on Oryza sativa (assay: Phytotoxicity against Oryza sativa cv. Koshihikari (rice) at 100 g a.i/ha measured after 14 days). Details: in vivo, 336 h.
Type: organism-based

SMILES | Activity
CCONC(=O)c1cn(C)nc1OCc1cccc(C(F)(F)F)c1 | Non-toxic

The molecules below were run on Schoenoplectiella juncoides (assay: Pre-emergence herbicidal activity against Schoenoplectiella juncoides at 100 g a.i/ha measured after 14 days). Details: not given.
Type: functional, organism-based

SMILES | Activity
CCONC(=O)c1cn(C)nc1OCc1cccc(C(F)(F)F)c1 | Active

These molecules were tested on Pontederia vaginalis (assay: Pre-emergence herbicidal activity against Monochoria vaginalis at 100 g a.i/ha measured after 14 days). Details: not given.
Type: functional, organism-based

SMILES | Activity
CCONC(=O)c1cn(C)nc1OCc1cccc(C(F)(F)F)c1 | Active

Each molecule was assayed on Ammannia multiflora (assay: Pre-emergence herbicidal activity against Ammannia multiflora at 100 g a.i/ha measured after 14 days). Details: not given.
Type: functional, organism-based

SMILES | Activity
CCONC(=O)c1cn(C)nc1OCc1cccc(C(F)(F)F)c1 | Active

These molecules were tested on Rotala indica (assay: Pre-emergence herbicidal activity against Rotala indica at 100 g a.i/ha measured after 14 days). Details: not given.
Type: functional, organism-based

SMILES | Activity
CCONC(=O)c1cn(C)nc1OCc1cccc(C(F)(F)F)c1 | Active

Each molecule was assayed on Elatine triandra (assay: Pre-emergence herbicidal activity against Elatine triandra at 100 g a.i/ha measured after 14 days). Details: not given.
Type: functional, organism-based

SMILES | Activity
CCONC(=O)c1cn(C)nc1OCc1cccc(C(F)(F)F)c1 | Active

Each molecule was assayed on Lindernia procumbens (assay: Pre-emergence herbicidal activity against Lindernia procumbens at 100 g a.i/ha measured after 14 days). Details: not given.
Type: functional, organism-based

SMILES | Activity
CCONC(=O)c1cn(C)nc1OCc1cccc(C(F)(F)F)c1 | Active

These molecules were tested on Cyperus difformis (assay: Pre-emergence herbicidal activity against Cyperus difformis at 100 g a.i/ha measured after 14 days). Details: not given.
Type: functional, organism-based

SMILES | Activity
CCONC(=O)c1cn(C)nc1OCc1cccc(C(F)(F)F)c1 | Active

What follows are molecules tested on Echinochloa oryzicola (assay: Pre-emergence herbicidal activity against Echinochloa oryzicola at 100 g a.i/ha measured after 14 days). Details: not given.
Type: functional, organism-based

SMILES | Activity
CCONC(=O)c1cn(C)nc1OCc1cccc(C(F)(F)F)c1 | Active

What follows are molecules tested on Oryza sativa (assay: Phytotoxicity against Oryza sativa cv. Koshihikari (rice) at 500 g a.i/ha measured after 14 days). Details: in vivo, 336 h.
Type: organism-based

SMILES | Activity
CCONC(=O)c1cn(C)nc1OCc1cccc(C(F)(F)F)c1 | Non-toxic

These molecules were tested on Eleocharis acicularis (assay: Pre-emergence herbicidal activity against Eleocharis acicularis at 500 g a.i/ha measured after 14 days). Details: not given.
Type: functional, organism-based

SMILES | Activity
CCONC(=O)c1cn(C)nc1OCc1cccc(C(F)(F)F)c1 | Active

These molecules were tested on Pontederia vaginalis (assay: Pre-emergence herbicidal activity against Monochoria vaginalis at 500 g a.i/ha measured after 14 days). Details: not given.
Type: functional, organism-based

SMILES | Activity
CCONC(=O)c1cn(C)nc1OCc1cccc(C(F)(F)F)c1 | Active

Each molecule was assayed on Schoenoplectiella juncoides (assay: Pre-emergence herbicidal activity against Schoenoplectiella juncoides at 500 g a.i/ha measured after 14 days). Details: not given.
Type: functional, organism-based

SMILES | Activity
CCONC(=O)c1cn(C)nc1OCc1cccc(C(F)(F)F)c1 | Active

The molecules below were run on Ammannia multiflora (assay: Pre-emergence herbicidal activity against Ammannia multiflora at 500 g a.i/ha measured after 14 days). Details: not given.
Type: functional, organism-based

SMILES | Activity
CCONC(=O)c1cn(C)nc1OCc1cccc(C(F)(F)F)c1 | Active

Each molecule was assayed on Elatine triandra (assay: Pre-emergence herbicidal activity against Elatine triandra at 500 g a.i/ha measured after 14 days). Details: not given.
Type: functional, organism-based

SMILES | Activity
CCONC(=O)c1cn(C)nc1OCc1cccc(C(F)(F)F)c1 | Active

These molecules were tested on Rotala indica (assay: Pre-emergence herbicidal activity against Rotala indica at 500 g a.i/ha measured after 14 days). Details: not given.
Type: functional, organism-based

SMILES | Activity
CCONC(=O)c1cn(C)nc1OCc1cccc(C(F)(F)F)c1 | Active

Each molecule was assayed on Lindernia procumbens (assay: Pre-emergence herbicidal activity against Lindernia procumbens at 500 g a.i/ha measured after 14 days). Details: not given.
Type: functional, organism-based

SMILES | Activity
CCONC(=O)c1cn(C)nc1OCc1cccc(C(F)(F)F)c1 | Active

Each molecule was assayed on Echinochloa oryzicola (assay: Pre-emergence herbicidal activity against Echinochloa oryzicola at 500 g a.i/ha measured after 14 days). Details: not given.
Type: functional, organism-based

SMILES | Activity
CCONC(=O)c1cn(C)nc1OCc1cccc(C(F)(F)F)c1 | Active

Each molecule was assayed on Cyperus difformis (assay: Pre-emergence herbicidal activity against Cyperus difformis at 500 g a.i/ha measured after 14 days). Details: not given.
Type: functional, organism-based

SMILES | Activity
CCONC(=O)c1cn(C)nc1OCc1cccc(C(F)(F)F)c1 | Active

Each molecule was assayed on Eleocharis acicularis (assay: Post-emergence herbicidal activity against Eleocharis acicularis assessed as bleaching of stem/leaf parts). Details: not given.
Type: functional, organism-based

SMILES | Activity
CCONC(=O)c1cn(C)nc1OCc1cccc(C(F)(F)F)c1 | Active

What follows are molecules tested on Eleocharis acicularis (assay: Pre-emergence herbicidal activity against Eleocharis acicularis assessed as bleaching of stem/leaf parts). Details: not given.
Type: functional, organism-based

SMILES | Activity
CCONC(=O)c1cn(C)nc1OCc1cccc(C(F)(F)F)c1 | Active

Each molecule was assayed on Ammannia multiflora (assay: Pre-emergence herbicidal activity against Ammannia multiflora assessed as bleaching of stem/leaf parts). Details: not given.
Type: functional, organism-based

SMILES | Activity
CCONC(=O)c1cn(C)nc1OCc1cccc(C(F)(F)F)c1 | Active

These molecules were tested on Rotala indica (assay: Pre-emergence herbicidal activity against Rotala indica assessed as bleaching of stem/leaf parts). Details: not given.
Type: functional, organism-based

SMILES | Activity
CCONC(=O)c1cn(C)nc1OCc1cccc(C(F)(F)F)c1 | Active

What follows are molecules tested on Elatine triandra (assay: Pre-emergence herbicidal activity against Elatine triandra assessed as bleaching of stem/leaf parts). Details: not given.
Type: functional, organism-based

SMILES | Activity
CCONC(=O)c1cn(C)nc1OCc1cccc(C(F)(F)F)c1 | Active

What follows are molecules tested on Lindernia procumbens (assay: Pre-emergence herbicidal activity against Lindernia procumbens assessed as bleaching of stem/leaf parts). Details: not given.
Type: functional, organism-based

SMILES | Activity
CCONC(=O)c1cn(C)nc1OCc1cccc(C(F)(F)F)c1 | Active

Each molecule was assayed on Schoenoplectiella juncoides (assay: Pre-emergence herbicidal activity against Schoenoplectiella juncoides assessed as bleaching of stem/leaf parts). Details: not given.
Type: functional, organism-based

SMILES | Activity
CCONC(=O)c1cn(C)nc1OCc1cccc(C(F)(F)F)c1 | Active

These molecules were tested on Pontederia vaginalis (assay: Pre-emergence herbicidal activity against Monochoria vaginalis assessed as bleaching of stem/leaf parts). Details: not given.
Type: functional, organism-based

SMILES | Activity
CCONC(=O)c1cn(C)nc1OCc1cccc(C(F)(F)F)c1 | Active

Each molecule was assayed on Cyperus difformis (assay: Pre-emergence herbicidal activity against Cyperus difformis assessed as bleaching of stem/leaf parts). Details: not given.
Type: functional, organism-based

SMILES | Activity
CCONC(=O)c1cn(C)nc1OCc1cccc(C(F)(F)F)c1 | Active

These molecules were tested on Echinochloa oryzicola (assay: Pre-emergence herbicidal activity against Echinochloa oryzicola assessed as bleaching of stem/leaf parts). Details: not given.
Type: functional, organism-based

SMILES | Activity
CCONC(=O)c1cn(C)nc1OCc1cccc(C(F)(F)F)c1 | Active

The molecules below were run on Ammannia multiflora (assay: Post-emergence herbicidal activity against Ammannia multiflora assessed as bleaching of stem/leaf parts). Details: not given.
Type: functional, organism-based

SMILES | Activity
CCONC(=O)c1cn(C)nc1OCc1cccc(C(F)(F)F)c1 | Active

Each molecule was assayed on Elatine triandra (assay: Post-emergence herbicidal activity against Elatine triandra assessed as bleaching of stem/leaf parts). Details: not given.
Type: functional, organism-based

SMILES | Activity
CCONC(=O)c1cn(C)nc1OCc1cccc(C(F)(F)F)c1 | Active

These molecules were tested on Rotala indica (assay: Post-emergence herbicidal activity against Rotala indica assessed as bleaching of stem/leaf parts). Details: not given.
Type: functional, organism-based

SMILES | Activity
CCONC(=O)c1cn(C)nc1OCc1cccc(C(F)(F)F)c1 | Active

The molecules below were run on Schoenoplectiella juncoides (assay: Post-emergence herbicidal activity against Schoenoplectiella juncoides assessed as bleaching of stem/leaf parts). Details: not given.
Type: functional, organism-based

SMILES | Activity
CCONC(=O)c1cn(C)nc1OCc1cccc(C(F)(F)F)c1 | Active

Each molecule was assayed on Lindernia procumbens (assay: Post-emergence herbicidal activity against Lindernia procumbens assessed as bleaching of stem/leaf parts). Details: not given.
Type: functional, organism-based

SMILES | Activity
CCONC(=O)c1cn(C)nc1OCc1cccc(C(F)(F)F)c1 | Active

The molecules below were run on Pontederia vaginalis (assay: Post-emergence herbicidal activity against Monochoria vaginalis assessed as bleaching of stem/leaf parts). Details: not given.
Type: functional, organism-based

SMILES | Activity
CCONC(=O)c1cn(C)nc1OCc1cccc(C(F)(F)F)c1 | Active

These molecules were tested on Cyperus difformis (assay: Post-emergence herbicidal activity against Cyperus difformis assessed as bleaching of stem/leaf parts). Details: not given.
Type: functional, organism-based

SMILES | Activity
CCONC(=O)c1cn(C)nc1OCc1cccc(C(F)(F)F)c1 | Active

The molecules below were run on Echinochloa oryzicola (assay: Post-emergence herbicidal activity against Echinochloa oryzicola assessed as bleaching of stem/leaf parts). Details: not given.
Type: functional, organism-based

SMILES | Activity
CCONC(=O)c1cn(C)nc1OCc1cccc(C(F)(F)F)c1 | Active
